Test results published in PMC8145986, “In Vitro Enzymatic and Kinetic Studies, and In Silico Drug-Receptor Interactions, and Drug-Like Profiling of the 5-Styrylbenzamide Derivatives as Potential Cholinesterase and β-Secretase Inhibitors with Antioxidant Properties” (Antioxidants, 2021).

What was measured:
β-secretase [1] = biological target: T1, β-secretase (Homo sapiens, UniProt P56817); assay: β-Secretase (BACE-1) inhibition assay; format: biochemical; conditions: mean ± SD of three independent experiments
T1 construct: purchased Thermo Fisher Scientific Corporation; host or cells: baculovirus-expressed
Protocol: The β-secretase inhibitory activities of the test compounds were assayed in triplicates in 96-well plates using a recombinant baculovirus-expressed β-secretase and a specific substrate (Rh-[…]-Quencher), according to the manufacturer’s (Thermo Fisher Scientific Corporation, Johannesburg, Gauteng, South Africa) instructions, as described in our previous study. […] To each well, 2.0 μL human recombinant β-secretase (1.0 U/mL) was added to start the reaction and the reaction mixture was incubated for 60 min at room temperature. […] The IC50 and standard deviation values of both the test compounds and reference standard were calculated using the Graph Pad Prism.

[2] = DPPH radical scavenging assay; conditions: read-out: IC50 (SD) DPPH
Protocol: The antioxidant activities of the test compounds against ascorbic acid (Sigma Aldrich, Saint Louis, MO, USA) as a positive control were evaluated using a 2,2-diphenyl-1-picrylhydrazyl (DPPH) radical scavenging assay developed by Zhu et al., as described in our previous study. Duplicate solutions (20 μL) of the test compounds and ascorbic acid in DMSO (final concentrations: 5, 10, 25, 50, and 100 μM) were added into each designated well of a 96-well plate. A solution of DPPH (0.20 mM) (20 μL) in methanol was added to each well, and the 96-well plate was wrapped with aluminium foil and incubated in the dark for 45 min. Five absorbance readings were recorded at 512 nm using a Varioskan flash microplate spectrophotometer reader. The average values obtained from the absorbance readings were used to determine the IC50 and standard deviation values.

BChE = biological target: T2, BChE (Homo sapiens, UniProt P06276); assay: Enzyme kinetic study against BChE (Lineweaver-Burk and Dixon plots); format: biochemical
T2 construct: purchased Cloud-Clone Corp. (via Biocom Africa (Pty) Ltd.)
Protocol: The AChE and BChE enzyme kinetic studies were performed in triplicate in a 96-well plate following a procedure described in our previous study. Varying concentrations of 2a or 3c (0, 2.5, 3.5, and 5 μM) and AChI or BChI (0.1, 0.5, 2.5, and 5 mM) were used for the kinetic assays. The absorbances were measured after every 1 s for 10 s at a wavelength of 412 nm using a microplate spectrophotometer reader. The Lineweaver–Burk plots (plot of the inverse of velocity (1/v) against the inverse of the substrate concentration (1/[S])) were constructed.

β-secretase [3] = biological target: T1, β-secretase; assay: Enzyme kinetic study on β-secretase (Lineweaver-Burk and Dixon plots); format: biochemical
Protocol: Compounds 2a and 3b were subjected to kinetic studies on β-secretase using substrate concentrations 150, 300, and 450 nM at increasing inhibitor concentrations (0, 4, 8, and 16 μM) following a method reported before. The fluorescence readings were recorded after every 1 s for 10 s at excitation and emission values of 545 nm and 590 nm, respectively. The Lineweaver–Burk plots (plots of the inverse of velocity against the inverse of the substrate concentration) were constructed to assess changes in enzymatic parameters. The Dixon plots were also prepared to determine the inhibitor constants, Ki.

[4] = Metal chelation study by UV-vis spectrometry; format: physicochemical; conditions: room temperature
Protocol: The metal chelating ability of compounds 2a and 3b toward Cu^2+ and Zn^2+ was evaluated by ultraviolet–visible (UV–Vis) spectrometry. A solution of the test compound in methanol (30 μM, final concentration) alone or in the presence of CuCl2 or ZnCl2 (30 μM, final concentration) was stirred at RT for 30 min. The absorption spectra were recorded at room temperature on a PerkinElmer UV/Vis spectrometer (Perkin Elmer, Inc., Midrand, Johannesburg, South Africa) at wavelengths ranging from 200 to 1200 nm.
The ability of compound 2a to chelate Cu^2+ or Zn^2+ was assessed using a UV–vis spectrophotometric assay with a wavelength in the region of 200–1200 nm. The absorption spectrum of 2a (Figure 2) acquired in methanol at room temperature is characterized by four discernible absorption bands, around λ 300, 500, 690, and 1000 nm, respectively. These bands are reduced to two distinct bands of different intensities in the presence of either CuCl2 or ZnCl2. […] A bathochromic shift of the band found around 500 nm in the spectrum of 2a to around 580 nm in the presence of ZnCl2 occurred with no broadening. 2-Aminobenzamide is known to bind the Cu(II) ion through the amino-N and amido-O atoms.

Vero cells = assay: LPS-induced ROS production in Vero cells (H2DCF-DA); format: cell-based, monkey; conditions: 10 μM compound, LPS 1 μg/mL, 24 h (Figure 9a)
Protocol: Mitochondrial ROS levels in Vero and A549 cell lines was measured using the 2′,7′-dichlorofluorescin diacetate (H2DCF-DA) (Sigma-Aldrich, St. Louis, MO, USA, Merck, Darmstadt, Germany), fluorescent probe. Cells (1 × 10^5) were seeded in 96 well plates and incubated overnight at 37 °C in 5% CO2. A minimum non-toxic concentration (10 μM) of compounds (2a and 3b) was added separately as treatment and further incubated for an hour, after which LPS (1 μg/mL) was added to induce the production of ROS. After 24 h of incubation, the media was aspirated, cells were rinsed with PBS, and followed by the addition of H2DCF-DA (10 μM) for 30 min in the dark. The absorbance of the fluorescence was measured using a microplate reader (VarioSkan Flash, Thermo Fisher Scientific, Finland) at 485 and 535 nm values of excitation and emission, respectively. Data was processed and analysed using ANOVA, which was followed by Duncan’s multiple comparison test.

T1 sequence (P56817 46-501): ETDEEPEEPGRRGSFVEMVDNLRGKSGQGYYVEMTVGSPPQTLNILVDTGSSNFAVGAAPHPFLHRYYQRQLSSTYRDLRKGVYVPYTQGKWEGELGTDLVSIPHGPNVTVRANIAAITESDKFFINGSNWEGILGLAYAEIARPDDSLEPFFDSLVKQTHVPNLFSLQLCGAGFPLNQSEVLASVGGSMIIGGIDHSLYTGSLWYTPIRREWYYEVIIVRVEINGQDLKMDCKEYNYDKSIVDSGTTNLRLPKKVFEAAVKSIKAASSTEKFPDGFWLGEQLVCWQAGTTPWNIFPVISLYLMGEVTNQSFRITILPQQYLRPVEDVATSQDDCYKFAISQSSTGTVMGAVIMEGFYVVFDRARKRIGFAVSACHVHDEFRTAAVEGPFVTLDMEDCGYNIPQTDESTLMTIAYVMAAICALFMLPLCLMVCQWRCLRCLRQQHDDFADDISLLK
T2 sequence (P06276 29-602): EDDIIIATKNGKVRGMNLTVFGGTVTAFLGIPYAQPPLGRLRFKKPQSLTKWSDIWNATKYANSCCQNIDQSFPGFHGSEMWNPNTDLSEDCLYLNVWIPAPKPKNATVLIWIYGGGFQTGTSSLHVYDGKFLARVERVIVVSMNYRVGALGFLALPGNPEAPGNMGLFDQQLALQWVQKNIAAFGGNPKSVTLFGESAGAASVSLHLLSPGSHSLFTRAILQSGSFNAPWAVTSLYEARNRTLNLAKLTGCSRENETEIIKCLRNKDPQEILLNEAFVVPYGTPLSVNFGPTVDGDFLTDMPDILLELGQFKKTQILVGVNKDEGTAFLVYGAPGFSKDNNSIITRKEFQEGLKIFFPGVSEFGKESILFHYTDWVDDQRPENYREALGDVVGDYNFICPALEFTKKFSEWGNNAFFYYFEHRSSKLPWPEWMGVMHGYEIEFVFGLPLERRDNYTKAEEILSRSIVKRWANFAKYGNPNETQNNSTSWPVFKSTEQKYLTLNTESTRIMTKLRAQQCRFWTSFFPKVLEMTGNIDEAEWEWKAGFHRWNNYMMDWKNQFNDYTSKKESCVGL

Q: Which IC50 (β-secretase [1]) does the source give for `NC(=O)c1cc(/C=C/c2ccccc2)ccc1N` [Compound 2a, (E)-2-Amino-5-styrylbenzamide] here?
A: Its IC50 is 15.8 ± 0.26 µM.

Q: What about the IC50 [2] of the same compound?
A: The IC50 was 5.8 ± 0.32 µM.

Q: And the “mode of inhibition BChE” value (BChE)?
A: Its value is “mixed mode”.

Q: And the Ki (BChE; read-out: Ki (Dixon plot) BChE)?
A: The Ki was 2 µM.

Q: And the “mode of inhibition β-secretase” value (β-secretase [3])?
A: The value was “mixed mode”.

Q: And the Ki (β-secretase [3]; read-out: Ki (Dixon plot) β-secretase)?
A: Its Ki is 3.44 ± 0.3 µM.

Q: What about the “chelation of Cu2+” value ([4]; 30 μM compound and 30 μM CuCl2 in methanol) of the same compound?
A: The value was “selective for Cu (II) ion”.

Q: What about the “chelation of Zn2+” value ([4]; 30 μM compound and 30 μM ZnCl2 in methanol) of the same compound?
A: Its value is “relatively poor chelating ability”.

Q: And the “suppression of LPS-induced ROS” value (Vero cells)?
A: The value was “about 60%”.
